The target in this assay is Toll-like receptor 7 (Homo sapiens (Human), UniProt Q9NYK1). Description: Toll-like receptor 7 in vitro receptor binding activity screen (HEK-blue hTLR7 cell, alkaline phosphatase/Quanti-Blue readout). The conditions noted are these: HEK-blue hTLR7 cell, 24 h; read-out: TLR7 EC50. It counts as cell-based. The method, then:
Toll-Like Receptor 7 and Toll-Like Receptor 8 In Vitro Receptor Binding Activity Screen
HEK-blue hTLR7 cell and HEK-blue hTLR8 cell (available from InvivoGen)
1. Preparation of 96-well compound plate:
The compounds were gradient diluted with DMSO in 3-fold using liquid work station POD starting at a concentration of 10 mmol/L and 10 points were diluted (2nd column to 11th column, and each point was duplicated). At 12th column, 1 μL of 5 mg/mL positive compound R848 was added as positive control; and at 1st column, 1 μL of DMSO was added as negative control. Each well contained 1 μL of DMSO.
2. The cells in culture flask were collected and the cell density was diluted to 250,000 cells/mL.
3. 200 μL (50,000 cells/well) of cell suspension was added into prepared compound plate and the final concentration of DMSO in each well was 0.5%.
4. The culture plates containing cells and the compounds were incubated in CO2 incubator for 24 h at 37° C., 5% CO2.
5. After 24 h incubation, 20 μL of supernatant was removed from each well to a 96-well transparent assay plate. To each well of the assay plate was added 180 μL of Quanti-Blue reagent and the plate was incubated in an incubator at 37° C., 5% CO2 for 1 h.
6. After 1 h, the content of alkaline phosphatase in 20 μL of supernatant was determined using Microplate Reader OD650.
7. EC50 of each compound was obtained with Prism software.
Toll-like receptor 7, sequence (Q9NYK1 27-1049): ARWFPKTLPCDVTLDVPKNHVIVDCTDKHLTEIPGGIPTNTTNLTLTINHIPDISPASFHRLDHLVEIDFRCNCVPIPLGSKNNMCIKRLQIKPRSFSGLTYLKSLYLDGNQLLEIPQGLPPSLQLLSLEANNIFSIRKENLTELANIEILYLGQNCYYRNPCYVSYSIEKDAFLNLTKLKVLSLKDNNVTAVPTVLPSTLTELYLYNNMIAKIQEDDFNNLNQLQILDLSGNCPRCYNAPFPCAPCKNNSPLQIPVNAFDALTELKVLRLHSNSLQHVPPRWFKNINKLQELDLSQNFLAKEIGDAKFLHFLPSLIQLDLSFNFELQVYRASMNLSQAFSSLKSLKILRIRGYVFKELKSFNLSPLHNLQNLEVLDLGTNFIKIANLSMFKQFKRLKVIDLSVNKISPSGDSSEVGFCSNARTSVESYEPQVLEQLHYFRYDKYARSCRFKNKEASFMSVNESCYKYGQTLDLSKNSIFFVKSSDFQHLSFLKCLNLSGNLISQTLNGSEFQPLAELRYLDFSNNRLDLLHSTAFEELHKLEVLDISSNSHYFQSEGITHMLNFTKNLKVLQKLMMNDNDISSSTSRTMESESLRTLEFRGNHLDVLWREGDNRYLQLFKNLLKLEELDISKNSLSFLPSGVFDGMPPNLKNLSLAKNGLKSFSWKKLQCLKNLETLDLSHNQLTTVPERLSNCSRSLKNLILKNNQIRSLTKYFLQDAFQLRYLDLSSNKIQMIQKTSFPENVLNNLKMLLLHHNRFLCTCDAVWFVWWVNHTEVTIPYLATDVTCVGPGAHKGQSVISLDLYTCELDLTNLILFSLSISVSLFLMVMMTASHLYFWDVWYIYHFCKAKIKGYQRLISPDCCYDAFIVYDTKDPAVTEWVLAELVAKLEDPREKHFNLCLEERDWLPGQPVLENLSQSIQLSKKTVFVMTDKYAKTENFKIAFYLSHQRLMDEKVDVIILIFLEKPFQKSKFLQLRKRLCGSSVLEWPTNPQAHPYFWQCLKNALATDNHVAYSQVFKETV
`CCCCOc1nc(N)c2[nH]cc(Cc3ccc(C(C)N4CCCC4)cc3)c2n1` (centres unmarked) [Example 24, 2-butoxy-7-(4-(1-(pyrrolidine-1-yl)ethyl)benzyl)-5H-pyrrolo[3,2-d]pyrimidine-4-amine]: the EC50 was 100 to 1000 nM.

As to `CCCCOc1nc(N)c2[nH]cc(Cc3ccc(CN4CCC4)cc3)c2n1` [Example 14, 7-(4-(azetidin-1-ylmethyl)benzyl)-2-butoxy-5H-pyrrolo[3,2-d]pyrimidine-4-amine], the EC50 was in the range of 100 to 1000 nM.

On to `CCCCOc1nc(N)c2[nH]cc(Cc3ccc(CN4CCOCC4)cc3)c2n1` [Example 9, 2-butoxy-7-(4-(morpholinomethyl)benzyl)-5H-pyrrolo[3,2-d]pyrimidine-4-amine], for which the EC50 lay within 1000 to 50000 nM.

On to `CCCCOc1nc(N)c2[nH]cc(Cc3ccc(C4CCCN4C)cc3)c2n1` (centres unmarked) [Example 26, 2-butoxy-7-(4-(1-methylpyrrolidine-2-yl)benzyl)-5H-pyrrolo[3,2-d]pyrimidine-4-amine], for which the EC50 was 100 to 1000 nM.

For `CCCCOc1nc(N)c2[nH]cc(Cc3ccc(CN4CCC(F)(F)C4)cc3)c2n1` [Example 5], the EC50 is 1000 to 50000 nM.

Regarding `CCCCOc1nc(N)c2[nH]cc(Cc3ccc(CN4CCCN(C)CC4)cc3)c2n1` [Example 16, 2-butoxy-7-(4-((4-methyl-1,4-diazepan-1-yl)methyl)benzyl)-5H-pyrrolo[3,2-d]pyrimidine-4-amine], the EC50 was 100 to 1000 nM.

As to `CCCCOc1nc(N)c2[nH]cc(Cc3cccc(CN)c3)c2n1` [Example 3, 7-(3-(aminomethyl)benzyl)-2-butoxy-5H-pyrrolo[3,2-d]pyrimidine-4-amine], the EC50 was in the range of 1000 to 50000 nM.

As to `CCCCOc1nc(N)c2[nH]c(C#N)c(Cc3ccc(CN4CCN(C)CC4)cc3)c2n1` [Example 44, 4-amino-2-butoxy-7-(4-((4-methylpiperazine-1-yl)methyl)benzyl)-5H-pyrrolo[3,2-d]pyrimidine-6-carbonitrile], the EC50 is 1 to 100 nM.

As for `CCCCOc1nc(N)c2[nH]cc(Cc3ccc(CN4CCN(C(C)C)CC4)cc3)c2n1` [Example 20, 2-butoxy-7-(4-((4-isopropylpiperazine-1-yl)methyl)benzyl)-5H-pyrrolo[3,2-d]pyrimidine-4-amine], the EC50 lay in the range of 100 to 1000 nM.

As for `CCCCOc1nc(N)c2[nH]cc(Cc3ccc(CN4CCCC4)cn3)c2n1` [Example 40, 2-butoxy-7-((5-(pyrrolidine-1-ylmethyl)pyridine-2-yl)methyl)-5H-pyrrolo[3,2-d]pyrimidine-4-amine], the EC50 was in the range of 100 to 1000 nM.

On to `CCCCOc1nc(N)c2[nH]cc(Cc3ccc(N4CCN(C)CC4=O)cc3)c2n1` [Example 27, 1-(4-((4-amino-2-butoxy-5H-pyrrolo[3,2-d]pyrimidine-7-yl)methyl)phenyl)-4-methylpiperazine-2-one], for which the concentration for a half-maximal effect (EC50) lay within 100 to 1000 nM.

Turning to `CCCCOc1nc(N)c2[nH]cc(Cc3cccc(CN4CCOCC4)c3)c2n1` [Example 2, 2-butoxy-7-(3-(morpholinomethyl)benzyl)-5H-pyrrolo[3,2-d]pyrimidine-4-amine], the EC50 is 1000 to 50000 nM.

As for `CCCCOc1nc(N)c2[nH]cc(Cc3ccc(CN4CCN(C)CC4)cc3)c2n1` [Example 10, 2-butoxy-7-(4-((4-methylpiperazine-1-yl)methyl)benzyl)-5H-pyrrolo[3,2-d]pyrimidine-4-amine], the EC50 lay in the range of 1000 to 50000 nM.

With `CCCCOc1nc(N)c2[nH]cc(Cc3ccc(CN4CCC(F)C4)cc3)c2n1` (centres unmarked) [Example 6, 2-butoxy-7-(4-((3-fluoropyrrolidine-1-yl)methyl)benzyl)-5H-pyrrolo[3,2-d]pyrimidine-4-amine], the EC50 is 100 to 1000 nM.

For `CCCCOc1nc(N)c2[nH]c(C(N)=O)c(Cc3ccc(CN4CCCC4)cc3)c2n1` [Example 45, 4-amino-2-butoxy-7-(4-(pyrrolidine-1-ylmethyl)benzyl)-5H-pyrrolo[3,2-d]pyrimidine-6-formamide], the EC50 is 100 to 1000 nM.

With `CCCCOc1nc(N)c2[nH]cc(Cc3ccc(C4CCN(C)CC4)cc3)c2n1` [Example 25, 2-butoxy-7-(4-(1-methylpiperidine-4-yl)benzyl)-5H-pyrrolo[3,2-d]pyrimidine-4-amine], the EC50 was in the range of 1 to 100 nM.

As for `CCCCOc1nc(N)c2[nH]cc(Cc3cccc(CN4CCN(C)CC4)c3)c2n1` [Example 1, 2-butoxy-7-(3-((4-methylpiperazine-1-yl)methyl)benzyl)-5H-pyrrolo[3,2-d]pyrimidine-4-amine], the EC50 lay within 1000 to 50000 nM.

`CCCCOc1nc(N)c2[nH]cc(Cc3ccc4c(c3)CCN(CC)C4)c2n1` [Example 34, 2-butoxy-7-((2-ethyl-1,2,3,4-tetrahydroisoquinoline-6-yl)methyl)-5H-pyrrolo[3,2-d]pyrimidine-4-amine]: the EC50 lay within 100 to 1000 nM.

Regarding `CCCCOc1nc(N)c2[nH]cc(Cc3ccc(CN4CCC(O)C4)cc3)c2n1` (centres unmarked) [Example 7, 1-(4-((4-amino-2-butoxy-5H-pyrrolo[3,2-d]pyrimidine-7-1)methyl)benzyl)pyrrolidine-3-ol], the EC50 lay within 100 to 1000 nM.

Take `COCCOc1nc(N)c2[nH]cc(Cc3ccc(CN4CCCC4)nc3)c2n1` [Example 38, 2-(2-methoxylethoxyl-)-7-((6-(pyrrolidine-1-ylmethyl)pyridine-3-yl)methyl)-5H-pyrrolo[3,2-d]pyrimidine-4-amine]: the EC50 fell in the range of 100 to 1000 nM.

As to `CCCCOc1nc(N)c2[nH]cc(Cc3ccc(CN4CCC(OC)CC4)cc3)c2n1` [Example 19, 2-butoxy-7-(4-((4-methoxylpiperidine-1-yl)methyl)benzyl)-5H-pyrrolo[3,2-d]pyrimidine-4-amine], the EC50 lay within 100 to 1000 nM.

Consider `CCCCOc1nc(N)c2[nH]cc(Cc3ccc(CN4CC(C)OC(C)C4)cc3)c2n1` (centres unmarked) [Example 17, 2-butoxy-7-(4-((2,6-dimethylmorpholinyl)methyl)benzyl)-5H-pyrrolo[3,2-d]pyrimidine-4-amine], for which the EC50 lay within 100 to 1000 nM.

Regarding `CCCCOc1nc(N)c2[nH]c(C#N)c(Cc3ccc(CN4CCCC4)nc3)c2n1` [Example 41, 4-amino-2-butoxy-7-((6-(pyrrolidine-1-ylmethyl)pyridine-3-yl)methyl)-5H-pyrrolo[3,2-d]pyrimidine-6-carbonitrile], the half-maximal effective concentration (EC50) lay within 1 to 100 nM.

Consider `COCCOc1nc(N)c2[nH]cc(Cc3ccc(C)nc3)c2n1` [Example 36, 2-(2-methoxylethoxyl)-7-((6-methylpyridine-3-yl)methyl)-5H-pyrrolo[3,2-d]pyrimidine-4-amine], for which the EC50 fell in the range of 1000 to 50000 nM.

Turning to `CCCCOc1nc(N)c2[nH]c(C#N)c(Cc3ccc(CN4CCOCC4)cc3)c2n1` [Example 43, 4-amino-2-butoxy-7-(4-(morpholinomethyl)benzyl)-5H-pyrrolo[3,2-d]pyrimidine-6-carbonitrile], the EC50 lay in the range of 1 to 100 nM.

As for `CCCCOc1nc(N)c2[nH]cc(Cc3ccc(CN4CCCCC4)cc3)c2n1` [Example 8, 2-butoxy-7-(4-(piperidine-1-ylmethyl)benzyl)-5H-pyrrolo[3,2-d]pyrimidine-4-amine], the EC50 lay within 100 to 1000 nM.

Take `COCCOc1nc(N)c2[nH]cc(Cc3ccc(N4CCN(C)CC4=O)cc3)c2n1` [Example 39, 1-(4-((4-amino-2-(2-methoxylethoxyl)-5H-pyrrolo[3,2-d]pyrimidine-7-yl)methyl)phenyl)-4-methylpiperazine-2-one]: the EC50 fell in the range of 100 to 1000 nM.

Turning to `CCCCOc1nc(N)c2[nH]cc(Cc3ccc(CN(CCC)CCC)cc3)c2n1` [Example 13, 2-butoxy-7-(4-((dipropylamino)methyl)benzyl)-5H-pyrrolo[3,2-d]pyrimidine-4-amine], the EC50 was in the range of 100 to 1000 nM.

For the compound `CCCCOc1nc(N)c2[nH]cc(Cc3ccc(CN(CC)CC)cc3)c2n1` [Example 12, 2-butoxy-7-(4-((diethylamino)methyl)benzyl)-5H-pyrrolo[3,2-d]pyrimidine-4-amine], the EC50 lay in the range of 100 to 1000 nM.

In the case of `CCCCOc1nc(N)c2[nH]cc(Cc3ccc4c(c3)CCNC4)c2n1` [Example 32, 2-butoxy-7-((1,2,3,4-tetrahydroisoquinoline-6-yl)methyl)-5H-pyrrolo[3,2-d]pyrimidine-4-amine], the concentration for a half-maximal effect (EC50) was 100 to 1000 nM.

Turning to `CCCCOc1nc(N)c2[nH]cc(Cc3ccc4c(c3)CCN(C)C4)c2n1` [Example 33, 2-butoxy-7-((2-methyl-1,2,3,4-tetrahydroisoquinoline-6-yl)methyl)-5H-pyrrolo[3,2-d]pyrimidine-4-amine], the EC50 lay within 100 to 1000 nM.

Turning to `COCCOc1nc(N)c2[nH]cc(Cc3ccc(Cl)cn3)c2n1` [Example 37, 7-((5-chloropyridine-2-yl)methyl)-2-(2-methoxylethoxyl)-5H-pyrrolo[3,2-d]pyrimidine-4-amine], the EC50 is 1000 to 50000 nM.

Turning to `CCCCOc1nc(N)c2[nH]cc(Cc3cccc(CCN4CCCC4)c3)c2n1` [Example 23, 2-butoxy-7-(3-(2-(pyrrolidine-1-yl)ethyl)benzyl)-5H-pyrrolo[3,2-d]pyrimidine-4-amine], the concentration giving a half-maximal response (EC50) was 1000 to 50000 nM.

Consider `CCCCOc1nc(N)c2[nH]cc(Cc3ccc(CN4C[C@@H]5C[C@H]4CO5)cc3)c2n1` [Example 18, 7-(4-((1 S,4S)-2-oxa-5-azabicyclo[2.2.1]heptane-5-ylmethyl)benzyl)-2-butoxy-5H-pyrrolo[3,2-d]pyrimidine-4-amine], for which the EC50 fell in the range of 100 to 1000 nM.

For `COCCOc1nc(N)c2[nH]cc(Cc3ccccc3)c2n1` [Example 35, 7-benzyl-2-(2-methoxylethoxyl)-5H-pyrrolo[3,2-d]pyrimidine-4-amine], the EC50 fell in the range of 1000 to 50000 nM.

(Values after patent US9962388B2, “Pyrrolopyrimidine compounds used as TLR7 agonist” (priority 2014, dated 2018).)
